Molecules are shown by their SMILES.

A short description of data set [1]: LD50 (acute toxicity, i.g.). The note with it: in vivo, po, species not given.
For data set [2], the system named is Shay Rat. Nature of the data set: antisecretory activity (Shay Rat). The data set is classed as in vivo. The note with it: i.g.
The test system of data set [3] is Guinea pig cough. The data set is described as follows: Guinea pig cough (Antitussive). The data set is classed as in vivo. As to conditions: Example 8 250 mg/kg equivalent to 150 mg/kg codeine.
A short description of data set [4]: antiphlogistic (anti-inflammatory) activity. The class given is in vivo.
The nature of data set [5]: analgesic activity. As to conditions: dose not given. The data set is classed as in vivo.

Usually LD50 stands for the dose expected to kill half of the subjects tested. For `CC(C)C(=O)N=C1N=S(=O)(c2ccccc2)c2ccccc21` (stereo not shown) [Example 7, 3-(Isobutyrylimino)-1-phenyl-3H-1,2-benzisothiazole-1-oxide], the LD50 in data set [1] came to 600 mg/kg. Further, in data set [2], the “Activity: antisecretory (dose)” value came to 100 mg/kg.

As to `CS1(=O)=NC(=NC(=O)c2ccccc2O)c2ccccc21` (stereo not shown) [Example 8, 3-(Salicyloylimino)-1-methyl-3H-1,2-benzisothiazole-1-oxide], the LD50 in data set [1] was 1600 mg/kg. Moreover, in data set [3], the “Activity: Guinea pig cough (Antitussive), equivalent dose” value was 250 mg/kg.

With `COc1ccc2c3c1O[C@H]1[C@@H](O)C=C[C@H]4[C@@H](C2)N(C)CC[C@@]341` [codeine, reference compound], the “Activity: Guinea pig cough (Antitussive), equivalent dose” value in data set [3] worked out at 150 mg/kg.

In turn, `CCC(=O)N=C1N=S(=O)(c2ccccc2)c2ccccc21` (stereo not shown) [Example 6, 3-(Propionylimino)-1-phenyl-3H-1,2-benzisothiazole-1-oxide] showed a 50% lethal dose (LD50) in data set [1] of 1600 mg/kg. Also, the “Activity: antiphlogistic / anti-inflammatory (in words)” value in data set [4] (dose not given) is “Antiphlogistic”. For the same compound, the “Activity: analgesic (in words)” value in data set [5] is given as “analgesic”.

Consider `CCOC(=O)N=C1N=S(=O)(c2ccccc2)c2ccccc21` (stereo not shown) [Example 12, 3-(Ethoxycarbonylimino)-1-phenyl-3H-1,2-benzisothiazole-1-oxide], for which the LD50 in data set [1] came out at 1600 mg/kg. In addition, in data set [4] (dose at which antiphlogistic activity is stated, route and species not given), the “Activity: antiphlogistic (dose)” value is listed as 250 mg/kg.

Source of the values: patent publication US3953464A, “Cyclic sulphoximides” (Warner-Lambert Company, priority 1973, dated 1976).
